From patent US20120142720A1, “Phenylethanoic Acid, Phenylpropanoic Acid and Phenylpropenoic Acid Conjugates and Prodrugs of Hydrocodone, Methods of Making and Use Thereof” (KEMPHARM, INC., priority 2009, published 2012)

Assays:
[1] = Oral PK profile in rats, plasma hydrocodone and hydromorphone by LC-MS/MS
[2] = Water solubility / feasibility of intravenous or intranasal dosing; conditions: with regard to intravenous or intranasal dosing at oral equivalent doses
[3] = Intranasal PK profile in rats, plasma hydrocodone and hydromorphone by LC-MS/MS
[4] = Chemical stability: hydrolysis in 5% NaHCO3; assay type: physicochemical; conditions: 5% NaHCO3, one hour
[5] = Chemical stability: hydrolysis to hydrocodone in 1N HCl; conditions: 1 hour
[6] = equivalent to 2 mg/kg freebase hydrocodone, FIG. 7
[7] = equivalent to 2 mg/kg freebase hydrocodone, FIG. 8

COc1ccc2c3c1OC1C(OC(=O)C(C)c4ccc(CC(C)C)cc4)=CCC4C(C2)N(C)CCC314 (stereo not drawn) [Ibu-HC, ibuprofen-hydrocodone]
hydromorphone AUC compared with Diglycolate-HC ([1]; equivalent of 2 mg/kg hydrocodone freebase, FIG. 6): similar
hydrocodone and hydromorphone plasma concentrations compared with unconjugated Hydrocodone.BT ([1]; equivalent to 2 mg/kg freebase hydrocodone, FIG. 9 and FIG. 10): similar
AUC and Cmax values (hydrocodone and hydromorphone) compared with Hydrocodone.BT ([1]; same dose based on hydrocodone freebase): within the range of bioequivalence
water solubility [2]: very low water solubility
hydrocodone plasma concentrations compared with Hydrocodone.BT ([3]; Example 6, FIG. 11): significantly lower
hydromorphone plasma concentration compared with Hydrocodone.BT ([3]; Example 6, FIG. 12): very low plasma concentration
hydrocodone plasma concentrations compared with Adipate-HC [3, 6]: significantly lower
hydromorphone plasma concentration compared with Adipate-HC [3, 7]: very low plasma concentration
initial amount of conjugate hydrolyzed ([4]; ambient (~20° C.)): 0%
initial amount of conjugate hydrolyzed ([4]; oil bath 100° C.): 22%

COc1ccc2c3c1OC1C(OC(=O)CCCCC(=O)O)=CC[C@H]4[C@@H](C2)N(C)CC[C@]314 (stereo partly drawn) [Adipate-HC]
water solubility [2]: water-soluble
initial amount of conjugate hydrolyzed ([5]; ambient (~20° C.)): 13%
initial amount of conjugate hydrolyzed ([5]; oil bath 100° C.): 100%
hydrocodone AUC, higher than Ibu-HC [3, 6]: approximately 170%
hydrocodone Cmax, higher than Ibu-HC [3, 6]: ~245%
hydromorphone AUC, higher than Ibu-HC [3, 7]: approximately 940%
hydromorphone Cmax, higher than Ibu-HC [3, 7]: ~1,010%
initial amount of conjugate hydrolyzed ([4]; ambient (~20° C.)): 3%
initial amount of conjugate hydrolyzed ([4]; oil bath 100° C.): 100%

COc1ccc2c3c1O[C@H]1C(=O)CC[C@H]4[C@@H](C2)N(C)CC[C@]314.O=C(O)C(O)C(O)C(=O)O [Hydrocodone.BT, hydrocodone bitartrate]
hydrocodone AUC, higher than Ibu-HC ([3]; Example 6, FIG. 11): approximately 300%
hydrocodone Cmax, higher than Ibu-HC ([3]; Example 6, FIG. 11): ~525%

COc1ccc2c3c1OC1C(OC(=O)/C=C/c4ccccc4)=CCC4C(C2)N(C)CCC314 (stereo not drawn) [Cinnamate-HC, cinnamate-hydrocodone]
hydrocodone plasma concentrations during subsequent elimination compared with Hydrocodone.BT ([1]; equivalent to 2 mg/kg freebase hydrocodone, FIG. 9): similar

COc1ccc2cc(C(C)C(=O)OC3=CCC4C5Cc6ccc(OC)c7c6C4(CCN5C)C3O7)ccc2c1 (stereo not drawn) [Naproxen-HC, naproxen-hydrocodone]
initial amount of conjugate hydrolyzed ([5]; ambient (~20° C.)): 0%
initial amount of conjugate hydrolyzed ([5]; oil bath 100° C.): 33%
initial amount of conjugate hydrolyzed ([4]; ambient (~20° C.)): 0%
initial amount of conjugate hydrolyzed ([4]; oil bath 100° C.): 8%

COc1ccc2c3c1OC1C(OC(=O)COCC(=O)O)=CC[C@H]4[C@@H](C2)N(C)CC[C@]314 (stereo partly drawn) [Diglycolate-HC]
water solubility [2]: water-soluble
